Key:
striatal DA release = assay: Electrically evoked striatal DA release in brain slices (fast scanning cyclic voltammetry); conditions: 10 μM DHPG alone, mouse slices
Procedure: into the home cage. The arena is then cleaned with 70% ethanol in between animals. The day of the test the animals are habituated to the dosing room for 2 hours. The animals were administered VU6024578 (1-10 mg/kg p.o.) or vehicle (10% Tween 80) and were placed back into their homecage for 60 min. The animals were then injected with MK-801 (0.075 mg/kg 1 ml/kg s.c.) and placed back in the homecage for 30 min. The animals are then placed into the arena with two identical familiar objects for ten minutes and then placed back into the home cage. The animals are then placed back into the arena with one of the familiar objects replaced with a novel object at 120 min after the familiar object exposure. The activity of the animals are recorded and the time spent exploring each of the objects is scored by a blinded observer. Recognition index is determined by subtracting […] divided by total time spent exploring.
Brain Slice Preparation and Fast Scanning Cyclic Voltammetry: […]
Electrically-evoked dopamine overflow was monitored with carbon fiber electrodes as previously reported (Foster et al. 2014). […]

human mGlu1 = target: T1, human mGlu1 (Homo sapiens, UniProt Q13255); design: method as in PMID 39665415; conditions: previously reported compound; cited from earlier work
T1 construct: expressed in transfected cells; pcDNA5/TO)

[1] = test system: amphetamine-induced hyperlocomotion in rats; design: method as in PMID 39665415; conditions: cited from earlier work
[2] = design: method as in PMID 39665415; conditions: cited from earlier work

T1 sequence (Q13255 19-1194): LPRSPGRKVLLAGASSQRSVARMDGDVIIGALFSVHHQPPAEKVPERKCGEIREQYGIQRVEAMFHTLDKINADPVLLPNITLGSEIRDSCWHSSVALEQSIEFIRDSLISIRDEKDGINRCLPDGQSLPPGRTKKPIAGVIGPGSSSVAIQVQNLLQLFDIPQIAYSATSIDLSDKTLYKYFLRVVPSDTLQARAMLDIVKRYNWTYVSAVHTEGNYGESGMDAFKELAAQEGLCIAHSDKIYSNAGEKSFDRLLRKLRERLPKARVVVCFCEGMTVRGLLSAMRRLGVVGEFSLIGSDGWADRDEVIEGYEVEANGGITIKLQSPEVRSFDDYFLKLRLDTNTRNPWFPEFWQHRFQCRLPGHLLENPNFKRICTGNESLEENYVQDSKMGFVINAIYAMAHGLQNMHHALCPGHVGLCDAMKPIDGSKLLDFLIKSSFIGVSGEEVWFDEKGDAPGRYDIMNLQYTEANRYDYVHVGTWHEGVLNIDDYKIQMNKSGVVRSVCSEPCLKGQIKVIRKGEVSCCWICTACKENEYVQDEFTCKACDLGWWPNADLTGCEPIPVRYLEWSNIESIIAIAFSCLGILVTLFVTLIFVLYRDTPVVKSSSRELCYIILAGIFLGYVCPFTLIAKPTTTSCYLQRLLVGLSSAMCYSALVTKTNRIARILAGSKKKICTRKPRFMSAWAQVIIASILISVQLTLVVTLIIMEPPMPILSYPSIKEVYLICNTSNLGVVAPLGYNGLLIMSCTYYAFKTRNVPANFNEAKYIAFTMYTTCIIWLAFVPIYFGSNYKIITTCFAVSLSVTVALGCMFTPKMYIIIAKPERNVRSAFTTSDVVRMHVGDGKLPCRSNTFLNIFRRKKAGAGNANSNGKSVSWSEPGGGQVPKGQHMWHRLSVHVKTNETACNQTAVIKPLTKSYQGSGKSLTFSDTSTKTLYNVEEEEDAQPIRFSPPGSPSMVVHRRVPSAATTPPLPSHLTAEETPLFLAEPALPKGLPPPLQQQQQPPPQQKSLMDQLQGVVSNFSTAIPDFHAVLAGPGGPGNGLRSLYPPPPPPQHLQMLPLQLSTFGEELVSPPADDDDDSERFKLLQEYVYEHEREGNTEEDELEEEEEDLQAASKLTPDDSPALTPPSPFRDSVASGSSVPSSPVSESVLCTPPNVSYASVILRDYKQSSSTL

SMILES | effect on striatal DA release, agonist alone (striatal DA release) | mGlu1 Glumax of 3 (human mGlu1) | unbound brain level as fold of rat mGlu1 EC50 at which AHL was reversed [1] | species with adverse events [2]
N[C@H](C(=O)O)c1cc(O)cc(O)c1 [DHPG, (S)-3,5-dihydroxyphenylglycine, reference compound] | did not produce a significant inhibition of striatal DA release | – | – | –
Cn1nc(-c2ccnn2C)cc1CNC(=O)c1cc(-c2ccco2)ccc1Cl [compound 3] | – | 83% | ~0.7 fold | only exhibited AEs in dogs

Source: article PMC11843613, “Further Optimization of the mGlu1 PAM VU6024578/BI02982816: Discovery and Characterization of VU6033685” (ACS Chemical Neuroscience, 2025)
